Assay results from patent US20240425453A1, “ISOINDOLINES AS PMS2 INHIBITORS” (NeoPhore Limited, priority 2021, published 2024).
Structures can show the parent of a compound that is named as a salt.

Biological target: recombinant N-terminal PMS2 (residues 1-365) (Homo sapiens (Human), UniProt P54278)
Experiment: Fluorescence polarisation assay for PMS2
Format: binding
Details: 10 nM N-terminal PMS2, 5 nM fluorescent probe compound; 30 min pre-incubation, read after 1 hour at room temperature

recombinant N-terminal PMS2 (residues 1-365), sequence (P54278 1-365): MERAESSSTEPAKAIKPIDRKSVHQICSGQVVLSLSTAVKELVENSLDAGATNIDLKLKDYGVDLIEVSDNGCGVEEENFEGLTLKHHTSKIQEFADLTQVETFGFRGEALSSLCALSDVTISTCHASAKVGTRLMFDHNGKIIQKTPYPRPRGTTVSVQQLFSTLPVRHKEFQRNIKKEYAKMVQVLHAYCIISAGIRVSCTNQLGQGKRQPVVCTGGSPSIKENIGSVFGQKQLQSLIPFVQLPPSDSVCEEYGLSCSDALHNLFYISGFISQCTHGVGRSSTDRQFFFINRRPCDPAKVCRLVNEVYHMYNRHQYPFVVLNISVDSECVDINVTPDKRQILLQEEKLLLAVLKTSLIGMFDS

| Structure (SMILES) | IC50 [nM] |
| --- | --- |
| C=CC(=O)Nc1cccc2c1CN(C(=O)c1c(O)cc(O)cc1OCc1ccccc1)C2 [Example 1, N-(2-(2-(Benzyloxy)-4,6-dihydroxybenzoyl)isoindolin-4-yl)acrylamide] | 100 to 1000 |
| CN(C)C/C=C/C(=O)Nc1cccc2c1CN(C(=O)c1c(O)cc(O)cc1OCc1ccccc1)C2 [Example 2, (E)-N-(2-(2-(Benzyloxy)-4,6-dihydroxybenzoyl)isoindolin-4-yl)-4-(dimethylamino)but-2-enamide] | < 100 |
| C=C(F)C(=O)Nc1cccc2c1CN(C(=O)c1c(O)cc(O)cc1OCc1ccccc1)C2 [Example 3, N-(2-(2-(Benzyloxy)-4,6-dihydroxy-benzoyl)isoindolin-4-yl)-2-fluoroacrylamide] | > 1000 |
| C=CC(=O)Nc1cccc2c1CN(C(=O)c1c(O)cc(O)c(C)c1OCc1ccccc1)C2 [Example 4, N-(2-(2-(Benzyloxy)-4,6-dihydroxy-3-methylbenzoyl)isoindolin-4-yl)acrylamide] | < 100 |
| C=C(F)C(=O)Nc1cccc2c1CN(C(=O)c1c(O)cc(O)c(C)c1OCc1ccccc1)C2 [Example 5, N-(2-(2-(Benzyloxy)-4,6-dihydroxy-3-methylbenzoyl)isoindolin-4-yl)-2-fluoroacrylamide] | > 1000 |
| Cc1c(O)cc(O)c(C(=O)N2Cc3cccc(NC(=O)/C=C/CN(C)C)c3C2)c1OCc1ccccc1 [Example 6, (E)-N-(2-(2-(Benzyloxy)-4,6-dihydroxy-3-methylbenzoyl)isoindolin-4-yl)-4-(dimethylamino)but-2-enamide] | < 100 |
| Cc1c(O)cc(O)c(C(=O)N2Cc3cccc(NC(=O)/C=C/CN(C)C)c3C2)c1OCC1CCCCC1 [Example 8, (E)-N-(2-(2-(cyclohexylmethoxy)-4,6-dihydroxy-3-methylbenzoyl)isoindolin-4-yl)-4-(dimethylamino)but-2-enamide] | < 100 |
| Cc1c(O)cc(O)c(C(=O)N2Cc3cccc(NC(=O)/C=C/CN4CCCC4)c3C2)c1OCC1CCCCC1 [Example 9, (E)-N-(2-(2-(Cyclohexylmethoxy)-4,6-dihydroxy-3-methylbenzoyl)isoindolin-4-yl)-4-(pyrrolidin-1-yl)but-2-enamide] | < 100 |
| CC#CC(=O)Nc1cccc2c1CN(C(=O)c1c(O)cc(O)c(C)c1OCC1CCCCC1)C2 [Example 12, N-(2-(2-(Cyclohexylmethoxy)-4,6-dihydroxy-3-methylbenzoyl)isoindolin-4-yl)but-2-ynamide] | 100 to 1000 |
| C/C=C/C(=O)Nc1cccc2c1CN(C(=O)c1c(O)cc(O)c(C)c1OCC1CCCCC1)C2 [Example 13, (E)-N-(2-(2-(Cyclohexylmethoxy)-4,6-dihydroxy-3-methylbenzoyl)isoindolin-4-yl)but-2-enamide] | > 1000 |
| Cc1c(O)cc(O)c(C(=O)N2Cc3cccc(NC(=O)/C=C/CN(C)C)c3C2)c1OCC1CCCC1 [Example 14, (E)-N-[2-[2-(Cyclopentylmethoxy)-4,6-dihydroxy-3-methyl-benzoyl]isoindolin-4-yl]-4-(dimethylamino)but-2-enamide] | < 100 |
| Cc1c(O)cc(O)c(C(=O)N2Cc3ccc(NC(=O)/C=C/CN(C)C)cc3C2)c1OCC1CCCCC1 [Example 19, (E)-N-[2-[2-(Cyclohexylmethoxy)-4,6-dihydroxy-3-methyl-benzoyl]isoindolin-5-yl]-4-(dimethylamino)but-2-enamide] | 100 to 1000 |
| Cc1c(O)cc(O)c(C(=O)N2CCc3ccc(NC(=O)/C=C/CN(C)C)cc3C2)c1OCC1CCCCC1 [Example 21, (E)-N-[2-[2-(Cyclohexylmethoxy)-4,6-dihydroxy-3-methyl-benzoyl]-3,4-dihydro-1H-isoquinolin-7-yl]-4-(dimethylamino)but-2-enamide] | < 100 |
| Cc1c(O)cc(O)c(C(=O)N2Cc3cccc(NC(=O)/C=C/CN(C)C)c3C2)c1OCC(F)(F)F [Example 23, (E)-N-[2-[4,6-Dihydroxy-3-methyl-2-(2,2,2-trifluoroethoxy)benzoyl]isoindolin-4-yl]-4-(dimethylamino)but-2-enamide] | < 100 |
| COc1c(C)c(O)cc(O)c1C(=O)N1Cc2ccc(NC(=O)/C=C/CN(C)C)cc2C1 [Example 26, (E)-N-[2-(4,6-Dihydroxy-2-methoxy-3-methyl-benzoyl)isoindolin-5-yl]-4-(dimethylamino)but-2-enamide] | 100 to 1000 |
| COc1c(C)c(O)cc(O)c1C(=O)N1Cc2ccc(N(C)C(=O)/C=C/CN(C)C)cc2C1 [Example 27, (E)-N-[2-(4,6-dihydroxy-2-methoxy-3-methyl-benzoyl)isoindolin-5-yl]-4-(dimethylamino)-N-methyl-but-2-enamide] | 100 to 1000 |
| COc1c(C)c(O)cc(O)c1C(=O)N1CCc2ccc(N(C)C(=O)/C=C/CN(C)C)cc2C1 [Example 29, (E)-N-[2-(4,6-dihydroxy-2-methoxy-3-methyl-benzoyl)-3,4-dihydro-1H-isoquinolin-7-yl]-4-(dimethylamino)-N-methyl-but-2-enamide] | 100 to 1000 |
| Cc1c(O)cc(O)c(C(=O)N2Cc3cccc(N(C)C(=O)/C=C/CN(C)C)c3C2)c1OCC1CC1 [Example 31, (E)-N-[2-[2-(Cyclopropylmethoxy)-4,6-dihydroxy-3-methyl-benzoyl]isoindolin-4-yl]-4-(dimethylamino)-N-methyl-but-2-enamide] | 100 to 1000 |
| CCOc1c(C)c(O)cc(O)c1C(=O)N1Cc2cccc(N(C)C(=O)/C=C/CN(C)C)c2C1 [Example 33, (E)-4-(Dimethylamino)-N-(2-(2-ethoxy-4,6-dihydroxy-3-methylbenzoyl)isoindolin-4-yl)-N-methylbut-2-enamide] | < 100 |
| COc1c(C)c(O)cc(O)c1C(=O)N1Cc2ccc(OC/C=C/C(=O)N(C)C)cc2C1 [Example 34, (E)-4-[2-(4,6-Dihydroxy-2-methoxy-3-methyl-benzoyl)isoindolin-5-yl]oxy-N,N-dimethyl-but-2-enamide] | 100 to 1000 |

Results, then the compound that gave them:

| IC50 [nM] | Structure (SMILES) |
| --- | --- |
| < 100 | C=CC(=O)Nc1cccc2c1CN(C(=O)c1c(O)cc(O)c(C)c1OCC1CCCCC1)C2 [Example 7, N-(2-(2-(Cyclohexylmethoxy)-4,6-dihydroxy-3-methylbenzoyl)isoindolin-4-yl) acrylamide] |
| < 100 | Cc1c(O)cc(O)c(C(=O)N2Cc3cccc(NC(=O)/C=C/CN4CCOCC4)c3C2)c1OCC1CCCCC1 [Example 10, (E)-N-(2-(2-(cyclohexylmethoxy)-4,6-dihydroxy-3-methylbenzoyl)isoindolin-4-yl)-4-morpholinobut-2-enamide hydrochloride] |
| < 100 | C=CC(=O)Nc1ccc2c(c1)CN(C(=O)c1c(O)cc(O)c(C)c1OCC1CCCCC1)C2 [Example 16, N-[2-[2-(Cyclohexylmethoxy)-4,6-dihydroxy-3-methyl-benzoyl]isoindolin-5-yl]prop-2-enamide] |
| 100 to 1000 | C=CC(=O)Nc1cccc2c1CN(C(=O)c1c(O)cc(O)c(C)c1OCC1CCCCC1)CC2 [Example 17, N-[2-[2-(Cyclohexylmethoxy)-4,6-dihydroxy-3-methyl-benzoyl]-3,4-dihydro-1H-isoquinolin-8-yl]prop-2-enamide] |
| < 100 | C=CC(=O)Nc1ccc2c(c1)CN(C(=O)c1c(O)cc(O)c(C)c1OCC1CCCCC1)CC2 [Example 18, N-[2-[2-(Cyclohexylmethoxy)-4,6-dihydroxy-3-methyl-benzoyl]-3,4-dihydro-1H-isoquinolin-7-yl]prop-2-enamide] |
| 100 to 1000 | Cc1c(O)cc(O)c(C(=O)N2CCc3cccc(NC(=O)/C=C/CN(C)C)c3C2)c1OCC1CCCCC1 [Example 20, (E)-N-[2-[2-(Cyclohexylmethoxy)-4,6-dihydroxy-3-methyl-benzoyl]-3,4-dihydro-1H-isoquinolin-8-yl]-4-(dimethylamino)but-2-enamide] |
| < 100 | CCOc1c(C)c(O)cc(O)c1C(=O)N1Cc2cccc(NC(=O)/C=C/CN(C)C)c2C1 [Example 22, (E)-4-(Dimethylamino)-N-[2-(2-ethoxy-4,6-dihydroxy-3-methyl-benzoyl)isoindolin-4-yl]but-2-enamide] |
| < 100 | Cc1c(O)cc(O)c(C(=O)N2Cc3cccc(NC(=O)/C=C/CN(C)C)c3C2)c1OCC1CC1 [Example 24, (E)-N-[2-[2-(cyclopropylmethoxy)-4,6-dihydroxy-3-methyl-benzoyl]isoindolin-4-yl]-4-(dimethylamino)but-2-enamide] |
| < 100 | COc1c(C)c(O)cc(O)c1C(=O)N1Cc2cccc(N(C)C(=O)/C=C/CN(C)C)c2C1 [Example 25, (E)-N-[2-(4,6-Dihydroxy-2-methoxy-3-methyl-benzoyl)isoindolin-4-yl]-4-(dimethylamino)-N-methyl-but-2-enamide] |
| 100 to 1000 | COc1c(C)c(O)cc(O)c1C(=O)N1CCc2ccc(NC(=O)/C=C/CN(C)C)cc2C1 [Example 28, (E)-N-[2-(4,6-dihydroxy-2-methoxy-3-methyl-benzoyl)-3,4-dihydro-1H-isoquinolin-7-yl]-4-(dimethylamino)but-2-enamide] |
| 100 to 1000 | C=CC(=O)N(C)c1cccc2c1CN(C(=O)c1c(O)cc(O)c(C)c1OC)C2 [Example 32, N-[2-(4,6-dihydroxy-2-methoxy-3-methyl-benzoyl)isoindolin-4-yl]-N-methyl-prop-2-enamide] |
| 100 to 1000 | COc1c(C)c(O)cc(O)c1C(=O)N1Cc2cccc(OC/C=C/C(=O)N(C)C)c2C1 [Example 35, (E)-4-((2-(4,6-Dihydroxy-2-methoxy-3-methylbenzoyl)isoindolin-4-yl)oxy)-N,N-dimethylbut-2-enamide] |
| 100 to 1000 | C=C(CN1CCOCC1)C(=O)Nc1cccc2c1CN(C(=O)c1c(O)cc(O)c(C)c1OC)C2 [Example 37, N-(2-(4,6-Dihydroxy-2-methoxy-3-methylbenzoyl)isoindolin-4-yl)-2-(morpholinomethyl)acrylamide] |
